We go through 15 compounds from patent US9340577B2, “HLA binding motifs and peptides and their uses” (priority 1992, dated 2016).

What is called IC50 is the concentration at which inhibition is half-maximal. A higher IC50 goes with weaker potency.

Assay in all cases: biochemical
The target of one experiment is DR4w4 (DRB1*0401) (Homo sapiens, UniProt P01903+P01911, A100K/A169T/F76Y/I96L/K127E/L162R/M171V/N62H/P40V/Q125Y/R42H/S133A/S149N/S66Y/V115G/V209L/W38E). The class given is binding.
The next experiment concerns the target DRB1*0301 (Homo sapiens, UniProt P01903+P01911, A100K/A102G/A103R/A169T/F55Y/I96L/K41T/L162R/M171V/P40S/Q125H/Q178H/Q39Y/R42S/S66N/T106N/T262R/W38E/Y61H). The class given is binding.
Another experiment concerns the target DRB1*0405 (Homo sapiens, UniProt P01903+P01911, A100R/A169T/D86S/F76Y/I96L/K127E/L162R/M171V/N62H/P40V/Q125Y/R42H/S133A/S149N/S66Y/V115G/V209L/W38E). The class given is binding.
Another experiment deals with DRB1*0802 (Homo sapiens, UniProt P01903+P01911, A100R/A103L/A169T/F76Y/H45Y/I96F/K41T/L162R/M171V/P40S/Q125H/Q178H/Q39Y/Q99D/R218S/R42G/S66Y/V115G/W38E). The class given is binding.
The next experiment has as its target DRB1*0901 (Homo sapiens, UniProt P01903+P01911, A100R/A103E/D57H/D86V/F55Y/F60I/F76Y/I96F/K127E/L162R/M171V/P40D/Q125H/Q99R/R33Q/R42F/S133A/S66N/T210M/V115G/W38K/Y107V/Y59G/Y89S). The class given is binding.
The next experiment concerns the target DRB1*1201 (Homo sapiens, UniProt P01903+P01911, A100R/A169T/D57E/D86V/F55L/H45Y/K41T/L162R/M171V/P40S/Q125H/Q178H/Q39Y/Q99D/R42G/S66L/T262R/V114A/V67L/W38E/Y59H/Y61H/Y89S). The class given is binding.
In a further experiment the target is DRB1*1302 (Homo sapiens, UniProt P01903+P01911, A100E/A169T/K41T/L162R/M171V/P40S/Q125H/Q178H/Q39Y/Q99D/R42S/S66N/T262R/V115G/W38E/Y61H). The class given is binding.
A further experiment addresses DRB4*0101 (Homo sapiens, UniProt P01903+P13762, G164S). The class given is binding.
The next experiment concerns the target DRB1*1101 (Homo sapiens, UniProt P01903+P01911, A100R/A169T/A87E/I96F/K41T/L162R/M171V/P40S/Q125H/Q178H/Q39Y/Q99D/R42S/S66Y/T262R/V115G/W38E). The conditions noted are these: Binding affinity DRB1 *1101.
In a further experiment the target is DRB5*0101 (Homo sapiens, UniProt P01903+Q30154). The note with it: Binding affinity DRB5 *0101.
A further experiment deals with DR1 (DRB1*0101) (Homo sapiens, UniProt P01903+P01911, A100R/D57E/F55L/F60I/F76Y/I96L/L162R/M171V/P40L/Q125E/R42F/V115G/Y59C). The class given is binding.
Another experiment concerns the target DR7 (DRB1*0701) (Homo sapiens, UniProt P01903+P01911, A100R/A102G/A103Q/D57E/D86V/E43K/F76Y/K127E/L162R/M171V/P40G/Q125H/Q99D/R33Q/R42Y/R54Q/S133A/S66F/T210M/V115G/Y107V/Y59L/Y89S). The class given is binding.
In the next experiment the target is DRB1*1501 (Homo sapiens, UniProt P01903+P01911). The class given is binding.

No end group written: not given here.

DRB1*1101, sequence (P01903 26-254 limits assumed, other chains not shown): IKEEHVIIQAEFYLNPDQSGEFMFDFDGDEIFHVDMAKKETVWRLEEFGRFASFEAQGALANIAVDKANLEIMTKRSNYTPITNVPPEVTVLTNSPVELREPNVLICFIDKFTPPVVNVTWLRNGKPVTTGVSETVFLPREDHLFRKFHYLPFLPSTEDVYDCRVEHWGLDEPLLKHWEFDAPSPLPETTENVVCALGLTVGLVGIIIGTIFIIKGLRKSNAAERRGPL
DRB1*1302, sequence (P01903 26-254 limits assumed, other chains not shown): as above
DRB1*0301, sequence (P01903 26-254 limits assumed, other chains not shown): as above

MLAVFKDTYGLSFTD [Peptide 90.0050]: the IC50 on DR4w4 (DRB1*0401) was 829 nM; against DRB1*0301, 45 nM; against DRB1*0405, more than 20000 nM; at DRB1*0802 it was 7940 nM; against DRB1*0901, 1570 nM; against DRB1*1201, 7430 nM. Moreover, the IC50 against DRB1*1302 is 1240 nM; against DRB4*0101 it was more than 20000 nM; at DRB1*1101, 2290 nM; at DRB5*0101 it was 18300 nM.
Regarding IIHLKGDANILKCLR [Peptide 90.0197], the 50% inhibitory concentration (IC50) is 69 nM against DR1 (DRB1*0101); 64 nM against DR4w4 (DRB1*0401); 3050 nM against DR7 (DRB1*0701); 26 nM on DRB1*0301; 6500 nM against DRB1*0405; 2990 nM on DRB1*0802. Further, the IC50 worked out at 14100 nM against DRB1*0901; 5030 nM on DRB1*1201; 66 nM on DRB1*1302; 713 nM against DRB4*0101; 2460 nM at DRB5*0101.
Take LKAICIEKQSRAAKR [Peptide 90.0032]: the IC50 was 259 nM against DR1 (DRB1*0101); 307 nM against DR4w4 (DRB1*0401); 21 nM at DRB1*0301; more than 20000 nM against DRB1*0405; 273 nM against DRB1*0802; 13400 nM on DRB1*0901. Moreover, the IC50 against DRB1*1201 is 11800 nM; at DRB1*1501, 2060 nM; on DRB4*0101 it was 29 nM; on DRB1*1101, 545 nM.
As for VDFIVNDNDYLTQAE [Peptide 90.0031], the half-inhibitory concentration (IC50) against DR1 (DRB1*0101) is 2830 nM; at DR7 (DRB1*0701) it was 7280 nM; at DRB1*0301 it was 42 nM; against DRB1*0405, more than 20000 nM; against DRB1*0802, more than 20000 nM; against DRB1*0901, more than 20000 nM. The IC50 at DRB1*1201 is 17100 nM; on DRB1*1302, 204 nM; against DRB1*1501, more than 20000 nM; on DRB4*0101, 718 nM; at DRB1*1101 it was more than 20000 nM; on DRB5*0101, more than 20000 nM.
For GKSYFGMSLIQFLKG [Peptide 89.0075], the half-maximal inhibitory concentration (IC50) against DR1 (DRB1*0101) was 14 nM; on DR4w4 (DRB1*0401), 456 nM; at DRB1*0301, 8830 nM; at DRB1*0405 it was 1310 nM; against DRB1*0802 it was 1560 nM; on DRB1*0901, 73 nM. Besides, the IC50 against DRB1*1201 came out at 499 nM; at DRB4*0101, 372 nM; on DRB1*1101 it was 2960 nM; on DRB5*0101, 411 nM.
With LNTVKIPNTVSVSTG [Peptide 89.0178], the half-maximal inhibitory concentration (IC50) on DR1 (DRB1*0101) worked out at 51 nM; against DR4w4 (DRB1*0401), 824 nM; at DR7 (DRB1*0701), 5480 nM; against DRB1*0301, 65 nM; against DRB1*0405 it was 3020 nM; against DRB1*0802, 3690 nM. The IC50 came to 1140 nM against DRB1*0901; 361 nM on DRB1*1201; 12700 nM against DRB1*1501; 2580 nM at DRB4*0101; 976 nM at DRB1*1101.
As for HKAIELQMALKGLAQ [Peptide 90.0004], the half-inhibitory concentration (IC50) against DR1 (DRB1*0101) stood at 2.1 nM; against DR4w4 (DRB1*0401), 6.7 nM; at DRB1*0301, 32 nM; against DRB1*0405, 3310 nM; against DRB1*0802, 38 nM; on DRB1*1201, 293 nM. Also, the 50% inhibitory concentration (IC50) worked out at 6580 nM on DRB1*1501, 1 nM at DRB4*0101, 10 nM on DRB1*1101 and 57 nM on DRB5*0101.
For the compound TGWFEVEAVIERRTG [Peptide 90.0075], the IC50 is 17100 nM on DR1 (DRB1*0101); 4930 nM on DR7 (DRB1*0701); 17 nM on DRB1*0301; 6110 nM against DRB1*0405; more than 20000 nM at DRB1*0901; more than 20000 nM against DRB1*1201. Besides, the concentration for half-maximal inhibition (IC50) was more than 20000 nM on DRB1*1302, more than 20000 nM at DRB1*1501, more than 20000 nM at DRB4*0101 and 362 nM on DRB5*0101.
On to GERLEVDTELSPRLQ [Peptide 90.0048], for which the IC50 on DR1 (DRB1*0101) is more than 20000 nM; on DR7 (DRB1*0701), more than 20000 nM; at DRB1*0301, 15 nM; against DRB1*0405, more than 20000 nM; on DRB1*0802, more than 20000 nM; on DRB1*0901 it was more than 20000 nM. Also, the IC50 at DRB1*1201, at DRB1*1302, against DRB1*1501, against DRB4*0101, on DRB1*1101 and at DRB5*0101 was more than 20000 nM throughout.
In the case of VTVFTFPHAFPFDKN [Peptide 89.0092], the IC50 at DR7 (DRB1*0701) is 5.5 nM; on DRB1*0301, more than 20000 nM; against DRB1*0405 it was 10200 nM; at DRB1*0901, 33 nM; against DRB1*1201, 131 nM; at DRB1*1302, more than 20000 nM. In addition, the 50% inhibitory concentration (IC50) against DRB1*1501 was found to be 63 nM; on DRB4*0101, 1500 nM; on DRB5*0101 it was 226 nM.
For LLEFIDDSMENSIQA [Peptide 90.0077], the half-maximal inhibitory concentration (IC50) is 500 nM against DR1 (DRB1*0101); more than 20000 nM against DR7 (DRB1*0701); 518 nM at DRB1*0301; 534 nM on DRB1*0405; more than 20000 nM against DRB1*0802; 6680 nM on DRB1*0901. Besides, the IC50 on DRB1*1201 is more than 20000 nM; at DRB1*1302, more than 20000 nM; against DRB1*1501 it was 6120 nM; at DRB4*0101, 734 nM; on DRB1*1101, 7620 nM; on DRB5*0101 it was more than 20000 nM.
As to WQLIRLENAILFTAR [Peptide 90.0211], the concentration for half-maximal inhibition (IC50) against DR1 (DRB1*0101) came to 4.1 nM; at DR7 (DRB1*0701) it was 89 nM; against DRB1*0301 it was 41 nM; at DRB1*0405, 308 nM; against DRB1*0802 it was 1840 nM; against DRB1*0901, 2270 nM. In addition, the IC50 at DRB1*1201 came out at 99 nM; against DRB1*1302, 2.7 nM; at DRB1*1501, 44 nM; against DRB4*0101, 20 nM; on DRB5*0101, 445 nM.
Regarding WKLIRMECAIMYTAR [Peptide 90.0245], the IC50 came out at 328 nM at DR4w4 (DRB1*0401); 4610 nM against DR7 (DRB1*0701); 203 nM against DRB1*0301; 768 nM at DRB1*0405; 9170 nM against DRB1*0802; 4870 nM against DRB1*0901. The IC50 against DRB1*1201 was 195 nM; against DRB1*1501 it was 2110 nM; against DRB4*0101, 27 nM; on DRB5*0101, 1240 nM.
Regarding AKALQAIELQMMLET [Peptide 89.0171], the IC50 against DR1 (DRB1*0101) was 16 nM; against DR4w4 (DRB1*0401), 78 nM; against DR7 (DRB1*0701), 51 nM; against DRB1*0301, 1460 nM; against DRB1*0405, 798 nM; against DRB1*0802, more than 20000 nM. Further, the half-maximal inhibitory concentration (IC50) against DRB1*0901 was 84 nM; on DRB1*1201, 243 nM; against DRB1*1501, 8480 nM; on DRB4*0101, 2550 nM; on DRB1*1101 it was 2400 nM; on DRB5*0101, 284 nM.
For the compound `CC[C@H](C)[C@H](NC(=O)[C@H](Cc1c[nH]cn1)NC(=O)[C@H](C)NC(=O)[C@H](Cc1ccc(O)cc1)NC(=O)[C@H](CC(C)C)NC(=O)[C@@H](NC(=O)[C@H](C)NC(=O)[C@@H]1CCCN1C(=O)[C@H](CCCCN)NC(=O)[C@@H](NC(=O)[C@H](CC(C)C)NC(=O)[C@@H](NC(=O)[C@H](CCCCN)NC(=O)[C@@H](N)Cc1ccccc1)[C@@H](C)O)[C@@H](C)CC)[C@@H](C)O)C(=O)N[C@@H](CCC(N)=O)C(=O)O` [Peptide 89.0082], the half-inhibitory concentration (IC50) at DR1 (DRB1*0101) is 23 nM; against DR4w4 (DRB1*0401), 123 nM; against DRB1*0301, 825 nM; against DRB1*0405 it was 14 nM; on DRB1*0901, 570 nM; at DRB1*1201, 84 nM. Also, the half-maximal inhibitory concentration (IC50) at DRB1*1302 came out at 45 nM; at DRB4*0101, 20 nM; on DRB1*1101, 5.5 nM; on DRB5*0101 it was 2430 nM.
